Active and inactive are the calls of the source. No cut-off for these calls is given here.
How the values were obtained:
HCT-116 = experiment: Antiproliferative activity against human HCT-116 cells incubated for 72 hrs measured by MTT assay; assay type: functional, cell-based; conditions: HCT-116, 72 h
MDA-MB-231 = experiment: Antiproliferative activity against human MDA-MB-231 cells incubated for 72 hrs measured by MTT assay; assay type: functional, cell-based; conditions: MDA-MB-231, 72 h
A549 = experiment: Antiproliferative activity against human A549 cells incubated for 72 hrs measured by MTT assay; assay type: functional, cell-based; conditions: A549, 72 h
[1] = Cytotoxicity against human BEAS-2B cells incubated for 72 hrs measured by MTT assay; assay type: toxicity, cell-based
MIA PaCa-2 = experiment: Antiproliferative activity against human MIA PaCa-2 cells incubated for 72 hrs measured by MTT assay; assay type: functional, cell-based; conditions: MIA PaCa-2, 72 h
HeLa = experiment: Antiproliferative activity against human HeLa cells incubated for 72 hrs measured by MTT assay; assay type: functional, cell-based
HepG2 = experiment: Antiproliferative activity against human HepG2 cells incubated for 72 hrs measured by MTT assay; assay type: functional, cell-based; conditions: HepG2, 72 h
A-375 [2] = experiment: Antiproliferative activity against human A-375 cells incubated for 72 hrs measured by MTT assay; assay type: functional, cell-based; conditions: A-375, 72 h
PC-3 = experiment: Antiproliferative activity against human PC-3 cells incubated for 72 hrs measured by MTT assay; assay type: functional, cell-based; conditions: PC-3, 72 h
A-375 [3] = experiment: Effect cycle arrest in human A-375 cells assessed as accumulation of cells in G2/M phase at 2 uM measured by flow cytometric analysis (reference value: 26.76%); assay type: functional
A-375 [4] = experiment: Effect cycle arrest in human A-375 cells assessed as accumulation of cells in G2/M phase at 1 uM measured by flow cytometric analysis (reference value: 26.76%); assay type: functional
A-375 [5] = experiment: Induction of apoptosis in human A-375 cells assessed as early apoptotic cells at 0.5 uM measured by annexin V/PI based flow cytometric analysis (reference value: 9.78%); assay type: functional
A-375 [6] = experiment: Effect on mitotic progression in human A-375 cells assessed as mitotic index at 2 uM measured by flow cytometric analysis (reference value: 3.22%); assay type: functional
A-375 [7] = experiment: Induction of apoptosis in human A-375 cells assessed as late apoptotic cells at 2 uM measured by annexin V/PI based flow cytometric analysis (reference value: 1.07%); assay type: functional
A-375 [8] = experiment: Induction of apoptosis in human A-375 cells assessed as early apoptotic cells at 1 uM measured by annexin V/PI based flow cytometric analysis (reference value: 9.78%); assay type: functional
Aurora kinase C = molecular target: T1, Aurora kinase C (Homo sapiens, UniProt Q9UQB9); experiment: Inhibition of Aurora C (unknown origin) incubated for 1 hr by microplate reader analysis
T1 sequence (Q9UQB9 whole entry): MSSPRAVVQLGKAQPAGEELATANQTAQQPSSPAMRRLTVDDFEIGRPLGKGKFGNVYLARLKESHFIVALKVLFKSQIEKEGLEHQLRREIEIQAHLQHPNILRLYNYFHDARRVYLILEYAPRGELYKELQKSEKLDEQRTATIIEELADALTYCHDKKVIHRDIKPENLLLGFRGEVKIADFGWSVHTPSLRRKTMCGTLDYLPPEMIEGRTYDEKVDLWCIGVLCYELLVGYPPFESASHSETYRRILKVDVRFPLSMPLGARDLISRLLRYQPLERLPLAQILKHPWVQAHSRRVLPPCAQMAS

Aurora kinase B = Aurora kinase B (Homo sapiens, UniProt Q96GD4); experiment: Inhibition of Aurora B (unknown origin) incubated for 1 hr by microplate reader analysis
Aurora kinase B, sequence (Q96GD4 whole entry): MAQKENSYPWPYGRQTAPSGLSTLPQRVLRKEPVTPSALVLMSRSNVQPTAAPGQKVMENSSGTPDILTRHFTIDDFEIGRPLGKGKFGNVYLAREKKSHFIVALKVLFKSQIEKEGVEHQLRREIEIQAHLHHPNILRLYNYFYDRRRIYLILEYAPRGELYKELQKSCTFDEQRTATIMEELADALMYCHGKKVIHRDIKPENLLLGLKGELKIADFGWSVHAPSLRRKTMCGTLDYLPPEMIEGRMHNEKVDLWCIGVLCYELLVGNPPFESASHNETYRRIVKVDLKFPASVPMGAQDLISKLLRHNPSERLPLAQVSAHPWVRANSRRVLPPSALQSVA

A-375 [9] = experiment: Induction of apoptosis in human A-375 cells assessed as apoptotic cells at 1 uM measured by annexin V/PI based flow cytometric analysis (reference value: 10.8%); assay type: functional
A-375 [10] = experiment: Effect cycle arrest in human A-375 cells assessed as accumulation of cells in G2/M phase at 0.5 uM measured by flow cytometric analysis (reference value: 26.76%); assay type: functional
A-375 [11] = experiment: Induction of apoptosis in human A-375 cells assessed as late apoptotic cells at 0.5 uM measured by annexin V/PI based flow cytometric analysis (reference value: 1.07%); assay type: functional
A-375 [12] = experiment: Induction of apoptosis in human A-375 cells assessed as apoptotic cells at 0.5 uM measured by annexin V/PI based flow cytometric analysis (reference value: 10.8%); assay type: functional
A-375 [13] = experiment: Induction of apoptosis in human A-375 cells assessed as late apoptotic cells at 1 uM measured by annexin V/PI based flow cytometric analysis (reference value: 1.07%); assay type: functional
A-375 [14] = experiment: Induction of apoptosis in human A-375 cells assessed as apoptotic cells at 2 uM measured by annexin V/PI based flow cytometric analysis (reference value: 10.8%); assay type: functional
[15] = molecular target: T2, Aurora kinase A (Homo sapiens) (UniProt O14965); experiment: Inhibition of Aurora A (unknown origin) assessed as downregulation of kinase phosphorylation at 0.5 to 2 uM by Western blot analysis; conditions: dose 0.5-2 µM
T2 sequence (whole entry): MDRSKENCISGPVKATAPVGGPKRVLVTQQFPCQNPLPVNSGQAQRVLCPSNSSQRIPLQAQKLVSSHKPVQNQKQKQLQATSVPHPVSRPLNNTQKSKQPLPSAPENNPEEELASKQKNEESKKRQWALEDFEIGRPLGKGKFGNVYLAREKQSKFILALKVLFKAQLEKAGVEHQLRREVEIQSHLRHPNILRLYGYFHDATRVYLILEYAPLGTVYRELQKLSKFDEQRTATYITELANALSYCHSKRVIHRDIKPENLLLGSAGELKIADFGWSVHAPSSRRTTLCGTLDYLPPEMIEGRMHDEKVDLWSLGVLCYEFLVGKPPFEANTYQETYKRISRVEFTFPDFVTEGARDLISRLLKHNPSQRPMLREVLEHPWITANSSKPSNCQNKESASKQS

A-375 [16] = experiment: Effect on mitotic progression in human A-375 cells assessed as mitotic index at 1 uM measured by flow cytometric analysis (reference value: 3.22%); assay type: functional
A-375 [17] = experiment: Effect on mitotic progression in human A-375 cells assessed as mitotic index at 0.5 uM measured by flow cytometric analysis (reference value: 3.22%); assay type: functional
Aurora kinase A = molecular target: T3, Aurora kinase A (Homo sapiens, UniProt O14965); experiment: Inhibition of Aurora A (unknown origin) incubated for 1 hr by microplate reader analysis
T3 sequence (O14965 whole entry): T2 sequence (whole entry)

A-375 [18] = experiment: Induction of apoptosis in human A-375 cells assessed as early apoptotic cells at 2 uM measured by annexin V/PI based flow cytometric analysis (reference value: 9.78%); assay type: functional

| IC50 (HCT-116) [µM] | IC50 (MDA-MB-231) [µM] | IC50 (A549) [µM] | IC50 (MIA PaCa-2) [µM] | IC50 (HeLa) [µM] | IC50 (HepG2) [µM] | IC50 (A-375 [2]) [µM] | IC50 (PC-3) [µM] | SMILES | IC50 at 72 h [1] [µM] | also measured |
| --- | --- | --- | --- | --- | --- | --- | --- | --- | --- | --- |
| 74.7 | 34.7 | 49.2 | > 100 | 82.8 | > 100 | 26.8 | 32.5 | CCOc1ccc([C@@H]2[C@@](C)([N+](=O)[O-])[C@@H](c3ccccc3)N[C@@]2(C)C(=O)OC)cc1 | > 100 | – |
| 12.4 | 16.8 | 11.5 | 21.4 | 16.5 | 29 | 7.42 | 14 | CCOc1ccc([C@@H]2[C@@H](C(=O)OC)N[C@@H](c3ccccc3)[C@@]2(C)[N+](=O)[O-])cc1 | > 100 | – |
| 0.73 | 0.43 | 0.51 | 1.07 | 0.96 | 1.67 | 0.24 | 0.4 | CCOc1ccc([C@H]2[C@](C)([N+](=O)[O-])[C@H](c3ccccc3)N[C@]2(C)C(=O)OC)cc1 | > 100 | Activity (A-375 [3]): 68.69%; Activity (A-375 [4]): 54.46%; Activity (A-375 [5]): 13.5%; Activity (A-375 [6]): 18.51%; Activity (A-375 [7]): 17.8%; Activity (A-375 [8]): 20.4%; IC50 (Aurora kinase C): Not Active; IC50 (Aurora kinase B): Not Active; Activity (A-375 [9]): 35%; Activity (A-375 [10]): 32.73%; Activity (A-375 [11]): 9.23%; Activity (A-375 [12]): 22.7%; Activity (A-375 [13]): 14.6%; Activity (A-375 [14]): 37.6%; inhibition [15]: Active; Activity (A-375 [16]): 10.82%; Activity (A-375 [17]): 6.24%; IC50 (Aurora kinase A): 0.284 µM; Activity (A-375 [18]): 19.8% |
| > 100 | > 100 | > 100 | > 100 | > 100 | > 100 | > 100 | > 100 | CCOc1ccc([C@@H]2[C@@H]([N+](=O)[O-])[C@@H](c3ccccc3)N[C@@]2(C)C(=O)OC)cc1 | > 100 | – |
| > 100 | > 100 | > 100 | > 100 | > 100 | > 100 | > 100 | > 100 | CCOc1ccc([C@H]2[C@H](C(=O)OC)N[C@H](c3ccccc3)[C@]2(C)[N+](=O)[O-])cc1 | > 100 | – |
| > 100 | > 100 | > 100 | > 100 | > 100 | > 100 | > 100 | > 100 | CCOc1ccc([C@H]2[C@H]([N+](=O)[O-])[C@H](c3ccccc3)N[C@@H]2C(=O)OC)cc1 | > 100 | – |
| > 100 | > 100 | > 100 | > 100 | > 100 | > 100 | > 100 | > 100 | CCOc1ccc([C@@H]2[C@@H]([N+](=O)[O-])[C@@H](c3ccccc3)N[C@H]2C(=O)OC)cc1 | > 100 | – |
| > 100 | > 100 | > 100 | > 100 | > 100 | > 100 | > 100 | > 100 | CCOc1ccc([C@H]2[C@H]([N+](=O)[O-])[C@H](c3ccccc3)N[C@]2(C)C(=O)OC)cc1 | > 100 | – |
